# Source: PMC11019550, “Potent Inhibition of E. coli DXP Synthase by a gem-Diaryl Bisubstrate Analog” (ACS Infectious Diseases, 2024)
# Key:
# EcR99A DXPS = biological target: T1, EcR99A DXPS (Escherichia coli, UniProt P77488, R99A); test: Time-dependent inhibition, reaction progress curves on EcR99A; format: biochemical; conditions: 8 at 700 nM or 200 μM
# T1 construct: made in house
# Procedure: Figure S8. Replicates of reaction progress curves for DXP formation on EcR99A in the presence or absence of 8. Reactions were initiated by simultaneous addition of substrates (780 µM pyruvate and 2400 µΜ D-GAP) in the presence or absence of 8 (700 nM or 200 µM) at 25 °C. Reaction progress was measured using the DXPS-IspC coupled assay. Experiments were performed in […]
# Figure S9. Representative CD traces illustrating behavior of the CD signal corresponding to PLThDP formed from 8 on WT and EcDXPS variants. A) CD traces showing lack of a significant shift in CD signal following addition of pyruvate (1 mM, red trace) to E-PLThDP formed from 8 (blue trace) on WT B) Observed shift toward a LThDP-like CD signal following addition EcDXPS. of pyruvate to E-PLThDP formed from 8 on EcR99A DXPS. C) Observed shift toward a LThDP-like CD signal following addition of pyruvate to E-PLThDP formed from 8 on EcR478A DXPS. […]
# R478A EcDXPS [1] = biological target: T2, R478A EcDXPS (Escherichia coli, UniProt P77488, R478A); test: IC50 determination for 8 on R478A EcDXPS variant; format: biochemical; conditions: 400 nM DXPS, 2 × Km pyruvate, 10 × Km D-GAP
# T2 construct: made in house
# Procedure: EcDXPS and IspC were preincubated with inhibitor for 10 min at 25 °C in assay reaction buffer (100 mM HEPES pH 8, 2 mM MgCl2, 5 mM NaCl, 1 mM ThDP, and 200 μM NADPH). Enzyme concentrations for variants were as follows: 200 nM DXPS (wildtype EcDXPS) and 4 μM IspC; 400 nM DXPS (R99A and R478A EcDXPS) and 6 μM IspC. The reaction was initiated by the addition of substrates at final concentrations of 2 × Km pyruvate and 10 × KmD-GAP. NADPH consumption was monitored at 340 nm for 10 min at 25 °C. The initial rate of NADPH consumption was used to determine the initial rate of DXP formation catalyzed by DXPS. Experiments were performed in triplicate and error bars represented standard error.
# EcDXPS = biological target: T3, EcDXPS (Escherichia coli, UniProt P77488); test: DXPS-IspC coupled assay, apparent Ki on wildtype EcDXPS; format: biochemical; conditions: EcDXPS 100 nM, 10 min preincubation; Morrison equation fit; read-out: Ki^app
# T3 construct: made in house
# Procedure: To determine inhibitor potency, we used the DXPS-DXP reductoisomerae (DXPS-IspC) coupled assay to measure the activity of recombinant purified EcDXPS[24],[25],[31],[44],[50] in the presence of inhibitors. Reactions were initiated by the addition of substrates following a short preincubation of the inhibitor with enzymes, and initial velocities were determined by monitoring reduced nicotinamide adenine dinucleotide phosphate (NADPH) absorbance at 340 nm. Apparent Ki values were determined by fitting initial velocity data to the Morrison equation,[64],[65] which accounts for the tight-binding nature (Ki^app/[E]total < 10)[66] of inhibitors included in this study and allows for rigorous comparison of inhibitor potencies. […] Inhibitor activities were rationalized based on the predictions made from molecular docking of the corresponding PLThDP adducts into the DXPS active site.
# All compounds in this study were evaluated as DXPS inhibitors using the DXPS-IspC coupled assay as previously reported.[24] […] The DXPS reaction was initiated by the addition of substrates (50 μM pyruvate and 500 μM D-GAP). The initial rate of depletion of NADPH was monitored at 340 nm and was used to calculate the initial rate of DXP formation in the presence or absence of inhibitor. Initial rates of DXP formation were plotted as a function of [inhibitor], and Ki^app was determined by fitting the data to the Morrison equation (eq 1)[64],[65] in GraphPad Prism. This approach was deemed appropriate as the concentration of free inhibitor cannot be assumed to remain constant for most of these analogs in which Ki^app values approach the concentration of DXPS.[88],[89] Error is reported as standard deviation from three replicates. Active enzyme concentration ([E]T) was determined following Copeland’s method using 8 (Figure S2B).[88]
# The coupled assay was initiated by adding 20 μL of a 10× substrate stock to the preincubated E + I mixture to give a final volume of 200 μL. The final concentration of D-GAP was held constant at 500 μM, and [pyruvate] was added to final concentrations between 0 and 250 μM. The initial rate of NADPH depletion in the IspC-coupled reaction was monitored at 340 nm and was used to calculate the initial rate of DXP formation in the presence or absence of inhibitor. Initial rates were plotted as a function of [pyruvate]. […] Model discrimination analysis employing the Akaike information criterion was performed as well as Lineweaver–Burk analysis to determine the mixed model as the best fit. In all cases, error bars represent the standard deviation from three replicates.
# R478A EcDXPS [2] = biological target: T2, R478A EcDXPS; test: Circular dichroism titration (PLThDP formation, apparent KD) on R478A EcDXPS; format: binding
# Procedure: CD titrations of 8 and 10 onto WT, R99A, and R478A EcDXPS variants were conducted at 25 °C under aerobic conditions in 1.5 mL solutions containing 30 μM EcDXPS in 50 mM HEPES pH 8, 100 mM NaCl, 1 mM MgCl2, and 0.2 mM ThDP. Scans were obtained from 280 to 400 nm with a 0.5 s averaging time and 1 nm step following a titration of inhibitor (8: 0.25–30 μM on WT, 0.5–30 μM on R99A and R478A; 10 2.5–30 μM on WT, R99A, and R478A), with a 5 min preincubation of inhibitor with DXPS prior to scanning. […] The CD signals at 294 nm determined from the difference spectra obtained by subtracting the signal of E-ThDP at 294 nm were plotted as a function of [inhibitor] and fit to (1) the quadratic equation described in eq 2 (8 on WT DXPS), where E is the concentration of DXPS taking into account stoichiometric binding and CDmax is the maximal CD signal, or (2) a one-site specific binding curve (all other experiments) using GraphPad Prism Version 9 to calculate an apparent KD. Experiments were conducted in triplicate and the standard error was calculated. [drawing 2] 2
# At the conclusion of the titration described above, the CD signal at 313 nm (previously characterized for LThDP) was recorded. Pyruvate (1 mM) was then added to the mixture, and a CD scan of the resulting solution was conducted as described above, to detect shifts in the CD spectrum that may correlate to LThDP formation. Experiments were conducted in triplicate.
structure (smiles),measurement,setting,value
CC(=O)P(=O)(O)OCCc1cn(C(Cc2ccccc2)(Cc2ccccc2)C(=O)O)nn1 [Compound 8],time dependence of inhibition (progress curve for DXP formation),EcR99A DXPS,loss of time-dependent behavior
same,IC50,R478A EcDXPS [1],1010 ± 381 nM
same,Ki,EcDXPS,2.9 ± 0.5 nM
same,Kd,R478A EcDXPS [2],11000 ± 4000 nM
same,change in PLThDP CD signal upon addition of pyruvate,R478A EcDXPS [2]; R478A-PLThDP complex,shift in the CD profile toward the characteristic LThDP signal
